{"source": "patent US20240130368A1", "about": "“HERBICIDAL COMPOSITION” (Nippon Soda Co., Ltd., priority 2021, published 2024)", "assay_type_in_all_cases": "in vivo", "key": {"Zea mays [1]": {"test_system": "Zea mays", "assay": "Test Example 6: foliar spraying treatment, herbicidal effect from above ground weight (useful plant)", "details": "Compound (I-3) alone", "procedure": "(§1) POA allylphenyl ether (4.1 parts by weight), POE-POP glycol (1 part by weight), POE sorbitan laurate (0.8 parts by weight), glycerin (2.6 parts by weight), dimethylformamide (65.9 parts by weight), N-methylpyrrolidone (5.1 parts by weight), cyclohexanone (15.4 parts by weight), and aromatic hydrocarbons (5.1 parts by weight) were mixed and dissolved to prepare an emulsion. The active ingredient (4 mg) of the composition of the present invention was dissolved in this emulsion (100 μL) to prepare a test emulsion. It should be noted that POA means “polyoxyalkylene”, POE means “polyoxyethylene”, and POP means “polyoxypropylene”.\nA test emulsion was prepared in the same manner as in Test Example 4.\n(§2) A 300 cm^2 pot was filled with soil, and seeds of Zea mays and Ipomoea hederacea were sown into the surface layer, and then grown in a greenhouse after being covered lightly with soil. When each plant grew to a plant height of 7 to 9 cm, the above test emulsion was diluted so that the amount of the active ingredient became a predetermined amount, and sprayed on the foliage with a small sprayer at a spray water volume of 250 L per hectare.\nTest Examples 6-1 and 6-3 were evaluated in the same manner as in Test Example 4.\nThe expected values of the herbicidal effects in Test Example 6-2 were calculated using the following Colby's formula (Colby, S. R., Calculating synergistic and antagonistic responses of herbicide combinations, Weeds, 15, pp. 20-22 (1967)).\nX indicates an herbicidal effect (%) by applying the compound (1) alone, Y and Z each indicate an herbicidal effect (%) by applying one of the two types of the compounds (II) alone, and E indicates an expected value (%) of the herbicidal effect by applying combinations of the compound (I) and two types of the compounds (II).\nWhen the actual measured value (%) of the herbicidal effect by the combined application of the compound (I) and two types of the compounds (11) is greater than the expected value E, it can be regarded that the combined application of the compound (1) and two types of the compounds (II) has a synergistic effect.\nThe following plants were used as useful plants [scientific names]. • Corn for animal feed [Zea mays]"}, "Zea mays [2]": {"test_system": "Zea mays", "assay": "Test Example 4: foliar spraying treatment, herbicidal effect from above ground weight (useful plant)", "details": "Compound (I-3) alone, 63 gai/ha, 3 weeks after spraying", "procedure": "as §1\nas §2, with “mays, Setaria faberi, Sorghum halepense, Brachiaria platyphylla, Amaranthus palmeri, Senna obtusifolia” for “mays”, “11” for “9”, “cm, it was used for” for “cm,”, “test. The” for “above”\n(§3) For the evaluation of the herbicidal effects, the above ground weights of weeds in the untreated and treated areas were measured for each weed 3 weeks after spraying treatment, and the herbicidal effect (%) was calculated by the following calculation formula.\nIn addition, the expected values of the herbicidal effects were calculated from the herbicidal effects in a case where the compound (I) alone was applied and the herbicidal effects in a case where the compound (II) alone was applied by using the Colby's formula (Colby, S. R., Calculating synergistic and antagonistic responses of herbicide combinations, Weeds, 15, pp. 20-22 (1967)). […]"}, "Sorghum halepense": {"test_system": "Sorghum halepense", "assay": "Test Example 4: foliar spraying treatment, herbicidal effect from above ground weight", "details": "Compound (I-3) alone, 63 gai/ha, 3 weeks after spraying", "procedure": "as §1\nas §2, with “mays, Setaria faberi, Sorghum halepense, Brachiaria platyphylla, Amaranthus palmeri, Senna obtusifolia” for “mays”, “11” for “9”, “cm, it was used for” for “cm,”, “test. The” for “above”\nas §3\n(§4) In addition, the expected values of the herbicidal effects were calculated from the herbicidal effects in a case where the compound (I) alone was applied and the herbicidal effects in a case where the compound (II) alone was applied by using the Colby's formula (Colby, S. R., Calculating synergistic and antagonistic responses of herbicide combinations, Weeds, 15, pp. 20-22 (1967)).\n(§5) M indicates an herbicidal effect (%) in the application of the compound (1) alone, N indicates an herbicidal effect (%) in the application of the compound (II) alone, and E indicates an expected value (%) of the herbicidal effect in the combined application of the compound (I) and the compound (II). When the actual measured value (%) of the herbicidal effect in the combined application of the compound (I) and the compound (II) is greater than the expected value E, it can be regarded that the combined application of the compound (1) and the compound (II) has a synergistic effect.\n(§6) Herbicidal effect (%)=[(above ground weight of weeds in untreated area)−(above ground weight of weeds in treated area)/(above ground weight of weeds in untreated area)]×100\n(§7) The following grass species were used as grass species to be controlled [scientific names]. • Giant foxtail [Setaria faberi] • Johnson grass [Sorghum halepense] • Broadleaf signalgrass [Brachiaria platyphylla] • Palmer amaranth [Amaranthus palmeri] • Sicklepod [Senna obtusifolia] • Morning glory [Ipomoea hederacea]"}, "Senna obtusifolia": {"test_system": "Senna obtusifolia", "assay": "Test Example 4: foliar spraying treatment, herbicidal effect from above ground weight", "details": "Compound (I-3) alone, 63 gai/ha, 3 weeks after spraying", "procedure": "as §1\nas §2, with “mays, Setaria faberi, Sorghum halepense, Brachiaria platyphylla, Amaranthus palmeri, Senna obtusifolia” for “mays”, “11” for “9”, “cm, it was used for” for “cm,”, “test. The” for “above”\nas §3, §4, §5, §6, §7"}, "Amaranthus palmeri": {"test_system": "Amaranthus palmeri", "assay": "Test Example 4: foliar spraying treatment, herbicidal effect from above ground weight", "details": "Compound (I-3) alone, 63 gai/ha, 3 weeks after spraying", "procedure": "as §1\nas §2, with “mays, Setaria faberi, Sorghum halepense, Brachiaria platyphylla, Amaranthus palmeri, Senna obtusifolia” for “mays”, “11” for “9”, “cm, it was used for” for “cm,”, “test. The” for “above”\nas §3, §4, §5, §6, §7"}, "Brachiaria platyphylla": {"test_system": "Brachiaria platyphylla", "assay": "Test Example 4: foliar spraying treatment, herbicidal effect from above ground weight", "details": "Compound (I-3) alone, 63 gai/ha, 3 weeks after spraying", "procedure": "as §1\nas §2, with “mays, Setaria faberi, Sorghum halepense, Brachiaria platyphylla, Amaranthus palmeri, Senna obtusifolia” for “mays”, “11” for “9”, “cm, it was used for” for “cm,”, “test. The” for “above”\nas §3, §4, §5, §6, §7"}, "Setaria faberi": {"test_system": "Setaria faberi", "assay": "Test Example 4: foliar spraying treatment, herbicidal effect from above ground weight", "details": "Compound (I-3) alone, 63 gai/ha, 3 weeks after spraying", "procedure": "as §1\nas §2, with “mays, Setaria faberi, Sorghum halepense, Brachiaria platyphylla, Amaranthus palmeri, Senna obtusifolia” for “mays”, “11” for “9”, “cm, it was used for” for “cm,”, “test. The” for “above”\nas §3, §4, §5, §6, §7"}, "Ipomoea hederacea": {"test_system": "Ipomoea hederacea", "assay": "Test Example 4: foliar spraying treatment, herbicidal effect from above ground weight", "details": "Compound (I-3) alone, 63 gai/ha, 3 weeks after spraying", "procedure": "as §1\nas §2, with “mays, Setaria faberi, Sorghum halepense, Brachiaria platyphylla, Amaranthus palmeri, Senna obtusifolia” for “mays”, “11” for “9”, “cm, it was used for” for “cm,”, “test. The” for “above”\nas §3, §4, §5, §6, §7"}}, "data": [{"smiles": "COC12OC1(c1ccc(C(F)(F)F)c3c1CCCS3(=O)=O)C=NN(C)C2=O", "note": "(stereo not drawn) [Compound (I-3), 1-methoxy-3-methyl-6-(1,1-dioxido-8-(trifluoromethyl)thiochroman-5-yl)-7-oxa-3,4-diazabicyclo[4.1.0]hept-4-en-2-one]", "values": [{"measurement": "Actual measured value of herbicidal effect", "setting": "Zea mays [1]; 94 gai/ha", "value": 0, "unit": "%"}, {"measurement": "Actual measured value of herbicidal effect", "setting": "Zea mays [1]; 125 gai/ha", "value": 0, "unit": "%"}, {"measurement": "Actual measured value of herbicidal effect", "setting": "Zea mays [2]", "value": 0, "unit": "%"}, {"measurement": "Actual measured value of herbicidal effect", "setting": "Sorghum halepense", "value": 80, "unit": "%"}, {"measurement": "Actual measured value of herbicidal effect", "setting": "Senna obtusifolia", "value": 60, "unit": "%"}, {"measurement": "Actual measured value of herbicidal effect", "setting": "Amaranthus palmeri", "value": 100, "unit": "%"}, {"measurement": "Actual measured value of herbicidal effect", "setting": "Brachiaria platyphylla", "value": 80, "unit": "%"}, {"measurement": "Actual measured value of herbicidal effect", "setting": "Setaria faberi", "value": 80, "unit": "%"}, {"measurement": "Actual measured value of herbicidal effect", "setting": "Ipomoea hederacea", "value": 70, "unit": "%"}]}]}
